Series [1] in a line: Polymorph screen: crystallization and drying experiments (FT-Raman, PXRD, TG-FTIR, DSC). The format is physicochemical. On the procedure:
A preformulation and polymorphism study was performed for compound 63415. […] A total of 30 crystallization experiments, including phase equilibrations, drying experiments and other techniques, were carried out. All obtained solids were characterized by FT-Raman spectroscopy. All new forms were characterized by PXRD and TG-FTIR, and optionally by DSC and DVS.
All obtained materials were characterized by FT-Raman spectroscopy; selected samples were also characterized by PXRD.
Suspension equilibration experiments were carried out in one solvent and eleven solvent mixtures (Table 13). Suspensions of ˜100 mg of PP415-P1 in 0.2-2.0 mL of the selected solvents were prepared and shaken for 4-15 days at 22-24° C. The solids were recovered and characterized by FT-Raman spectroscopy; most were characterized also by PXRD.
Hot solutions of PP415-P1 were prepared in one solvent and four solvent mixtures (Table 14). […] In two cases (-P22, -P23) no solid precipitated, even after storage at 4-5° C. for two days. Here, the solvent was evaporated under N2 flow at r.t. The solids were recovered and characterized by FT-Raman spectroscopy and for those with spectra different from the amorphous starting material, FT-Raman class 1, also by PXRD.
Clear solutions of PP415-P1 were prepared in three solvent mixtures (Table 15). The solvents were then slowly evaporated at r.t. under ambient conditions. However, in two of the three experiments (-P15 and -P17) white solid precipitated before evaporation began. The obtained solids were examined by FT-Raman spectroscopy and PXRD.
At least one sample of each class was dried under vacuum with the aim to desolvate the solvates and to obtain non-solvated crystalline forms of 63415 (Table 16). The dried materials were characterized further by FT-Raman, PXRD, and TG-FTIR.
Bruker RFS100 with OPUS 6.5 software; Nd:YAG 1064-nm excitation, Ge detector, 3500-100 cm^−1 range; typical measurement conditions: 100-300 mW nominal laser power, 64-128 scans, 2 cm^−1 resolution.
Stoe Stadi P; Mythen1K Detector; Cu—Kα radiation; standard measurement conditions: transmission; 40 kV and 40 mA tube power; curved Ge monochromator; 0.02°2θ step size, 12 s or 60 s step time, 1.5-50.5°2θ or 1.0-55°2θ scanning range; detector mode: step scan; 1°2θ or 6°2θ detector step; standard sample preparation: 10 to 20 mg sample was placed between two acetate foils; sample holder: Stoe transmission sample holder; the sample was rotated during the measurement.
Netzsch Thermo-Microbalance TG 209 with Bruker FT-IR Spectrometer Vector 22; aluminum crucible (with microhole), N2 atmosphere, 10 K/min heating rate, 25-250° C. or 25-350° C. range.
Perkin Elmer DSC 7; gold crucibles (closed or with microhole), sample filled in an N2 environment, 10 K/min heating rate, −50 to 250° C. or 350° C. range, at times quench cooling (at −200 K/min) to −50° C. between scans.

Series [2] is described as follows: Dynamic vapor sorption (hygroscopicity). Format: physicochemical. On the procedure: Projekt Messtechnik Sorptions Prüfsystem SPS 11-100n or Surface Measurement Systems DVS-1. The sample was placed on an aluminum or platinum holder on top of a microbalance and allowed to equilibrate for 2 h at 50% r.h. before starting the pre-defined humidity program: • (1) 50→0% r.h. (5%/h); 5 h at 0% r.h. • (2) 0→95% r.h. (5%/h); 5 h at 95% r.h. • (3) 95→50% r.h. (5%/h); 2 h at 50% r.h.

The subject of series [3] is human NQO1 ARE (Nrf2) in HuH-7 human hepatoma cells. In words: NQO1-ARE luciferase reporter in HuH-7. Format: cell-based. To be noted: for Concentration required to increase transcription from the NQO1 ARE by 2-fold: HuH-7, 18 h. The text has this: The first luciferase reporter tested was under the control of a single ARE derived from the promoter of the human NQO1 gene, which allows for quantitative assessment of the endogenous activity of the Nrf2 transcription factor in cultured mammalian cells. […] The NQO1-ARE-luciferase reporter plasmid was constructed by inserting the human NQO1-ARE ([NT] ID NO: 31) into the pLuc-MCS vector using HindIII/XhoI cloning sites (GenScript Corp., Piscataway, N.J.). […] Firefly and Renilla luciferase activity was assayed by Dual-Glo Luciferase Assay (cat # E2920, Promega), and the luminescence signal was measured on an L-Max II luminometer (Molecular Devices). Firefly luciferase activity was normalized to the Renilla activity, and fold induction over a vehicle control (DMSO) of normalized Firefly activity was calculated. […] Values represent the average of three independent experiments.
For orientation: Reporter assays use an easily measured gene product as a stand-in for the process of interest.

For series [4], the system named is rat GSTA2 ARE (Nrf2) in AREc32 reporter cell line. The series is described as follows: GSTA2-ARE luciferase reporter in AREc32. To be noted: 4-fold GSTA2-ARE induction.
Series [5] has as its target MRP-1 (Homo sapiens, UniProt P33527). The series is described as follows: in vitro. The following applies: not told.
In series [6] the test system is NF-κB in NIH3T3/NF-κB-luc cell line. The series is described as follows: NF-κB luciferase reporter in NIH3T3/NF-κB-luc. The format is cell-based. To be noted: Mus musculus. The text has this: (b) TNF-α-induced activation of an NF-κB luciferase reporter in the mouse NIH3T3 cell line.
(§1) NF-κB is a transcription factor that plays a central role in the regulation of many immune and inflammatory responses. […] The NIH3T3/NF-κB-luc cell line maintains a chromosomal integration of a Firefly luciferase reporter construct regulated by eight copies of the NF-κB response element. The effects of these compounds can be quantified by measuring the value of the NF-κB IC50.

Series [7] concerns TNF-α-induced NF-κB activation in A549/NF-κB-Luc cells. In words: TNF-α-induced NF-κB luciferase reporter in A549/NF-κB-Luc. The format is cell-based. To be noted: Homo sapiens.
Description: (b) TNF-α-induced activation of an NF-κB luciferase reporter in the human A549 cell line.
as §1

A short description of series [8]: Distribution into mouse tissues after PO QD×3. Format: in vivo. The following applies: mice PO QD×3 25 mg/kg, 6 h after last dose, semi-quantitative. Here is the method:
Semi-quantitative analysis of drug content was performed.

Series [9] deals with LPS-induced NO (plasma NOx, Griess Reaction). The series is described as follows: Suppression of NO in vivo after LPS in CD-1 mice. The arrangement: species or system mouse. The following applies: LPS 5 mg/kg 24 h later. On the procedure: FIG. 51—Dose-dependent suppression of NO in vivo by 63415. CD-1 mice (n=6) were dosed with DMSO or […] by oral gavage. LPS (5 mg/kg) was administered 24 h later. Twenty-four hours after LPS administration, whole blood was collected for NO assay. NO inhibition was determined by Griess Reaction from reduced, de-proteinated plasma.

For series [10], the system named is NQO1 activity. In words: NQO1 activity induction in mouse liver, lung, and kidney after PO QD×3. To be noted: mice PO QD×3 25 mg/kg, 6 h after last dose. Format: in vivo. Here is the method: FIG. 53—NQO1 activity induction in mouse liver, lung, and kidney by 63415. Mice were dosed PO QD×3 with 25 mg/kg. Tissues were collected 6 h after the last dose, and analysis of NQO1 activity was performed.

[11] abbreviates: not viability normalized, read-out: NIH3T3/NF-κB IC50.
Where [12] appears, read: viability normalized, read-out: NIH3T3/NF-κB IC50, normalized for viability.
Setting [13] is: not viability normalized, read-out: NF-κB IC50, human A549 cell line (further experimentation).
The mark [14] stands for this setting: read-out: NF-κB IC50, human A549 cell line, viability normalized.

Like-named read-outs stand apart in the source and are kept apart here.

The term efflux ratio denotes a quotient of directional permeabilities that is used to spot active efflux.

Sequence of MRP-1 (P33527 whole entry): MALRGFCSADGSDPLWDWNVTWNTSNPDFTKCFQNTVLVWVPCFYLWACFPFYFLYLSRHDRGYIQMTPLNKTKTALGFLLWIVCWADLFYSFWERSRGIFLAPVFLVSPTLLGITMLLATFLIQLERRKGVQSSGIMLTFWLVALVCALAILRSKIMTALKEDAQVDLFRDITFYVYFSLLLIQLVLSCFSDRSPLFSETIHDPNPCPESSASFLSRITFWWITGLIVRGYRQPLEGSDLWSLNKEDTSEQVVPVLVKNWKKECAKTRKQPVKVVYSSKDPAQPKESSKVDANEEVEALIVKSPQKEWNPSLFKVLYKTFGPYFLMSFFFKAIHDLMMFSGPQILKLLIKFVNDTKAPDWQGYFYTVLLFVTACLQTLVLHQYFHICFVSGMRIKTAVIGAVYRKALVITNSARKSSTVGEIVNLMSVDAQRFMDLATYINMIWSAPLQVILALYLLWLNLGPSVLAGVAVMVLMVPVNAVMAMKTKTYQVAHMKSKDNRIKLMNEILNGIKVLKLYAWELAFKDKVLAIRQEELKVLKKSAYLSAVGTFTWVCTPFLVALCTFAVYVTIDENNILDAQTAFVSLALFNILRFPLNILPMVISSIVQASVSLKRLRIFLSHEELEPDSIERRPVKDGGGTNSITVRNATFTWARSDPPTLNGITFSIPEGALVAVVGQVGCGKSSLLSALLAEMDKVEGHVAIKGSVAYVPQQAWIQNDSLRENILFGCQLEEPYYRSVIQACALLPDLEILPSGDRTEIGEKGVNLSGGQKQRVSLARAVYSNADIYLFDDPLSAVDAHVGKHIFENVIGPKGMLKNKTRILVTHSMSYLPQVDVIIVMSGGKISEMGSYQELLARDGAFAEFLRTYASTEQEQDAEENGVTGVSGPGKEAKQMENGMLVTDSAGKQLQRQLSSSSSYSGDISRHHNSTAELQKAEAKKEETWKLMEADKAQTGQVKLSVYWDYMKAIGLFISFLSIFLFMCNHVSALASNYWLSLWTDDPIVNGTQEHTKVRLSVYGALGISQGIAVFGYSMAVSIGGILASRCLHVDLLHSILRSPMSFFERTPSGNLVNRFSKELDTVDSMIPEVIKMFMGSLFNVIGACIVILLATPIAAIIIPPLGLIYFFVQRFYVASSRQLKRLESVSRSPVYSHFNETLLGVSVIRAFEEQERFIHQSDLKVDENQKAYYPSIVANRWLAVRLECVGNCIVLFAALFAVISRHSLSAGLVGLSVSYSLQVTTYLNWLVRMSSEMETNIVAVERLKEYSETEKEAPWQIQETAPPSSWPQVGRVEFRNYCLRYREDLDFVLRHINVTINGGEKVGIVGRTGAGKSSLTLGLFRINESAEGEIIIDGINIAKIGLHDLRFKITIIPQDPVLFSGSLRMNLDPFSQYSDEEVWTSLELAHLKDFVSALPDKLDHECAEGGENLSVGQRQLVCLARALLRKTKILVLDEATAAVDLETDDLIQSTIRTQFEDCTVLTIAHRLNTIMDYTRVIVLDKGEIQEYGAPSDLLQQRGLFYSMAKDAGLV

For `CC1(C)CC[C@]2(NC(=O)C(C)(F)F)CC[C@]3(C)[C@H](C(=O)C=C4[C@@]5(C)C=C(C#N)C(=O)C(C)(C)[C@@H]5CC[C@]43C)[C@@H]2C1` [desolvated class 4], the “DSC: no decomposition up to” value in series [1] was “no decomposition up to 270 °C”. The “TG-FTIR: mass loss (solvent)” value in series [1] (first or main loss, solvent and temperature range per sample as printed) is “TG-FTIR: loss of ~0.9 wt.-%”. For the same molecule, the “TG-FTIR: decomposition at T” value in series [1] (listed as PP415-P37) is “decomposition at T > 280 °C”. The “DVS: hygroscopicity class” value in series [2] is “DVS: slightly hygroscopic; Δm = (mass increase <2% but ≧0.2%)”. Further, the “DVS: total mass gain from 0% r.h. to 95% r.h.” value in series [2] (0% r.h. to 95% r.h.) is on record as “mass gain of 2.1 wt.-% from 0%”. For the same molecule, in series [2] (50%→85% r.h., listed as PP415-P37), the “DVS: Δm (50%→85% r.h.)” value is given as “+0.7% (50%→85% r.h.); total”. The “post-DVS Raman and/or PXRD: solid form” value in series [2] (after DVS, listed as PP415-P37) is “to class 4”. Besides, the “Hygroscopicity classification (DVS)” value in series [2] (mass gain at 85% r.h.) is recorded as “slightly hygroscopic (mass increase <2% but ≧0.2%)”.

For the molecule `CC(=O)N[C@]12CCC(C)(C)C[C@H]1[C@H]1C(=O)C=C3[C@@]4(C)C=C(C#N)C(=O)C(C)(C)[C@@H]4CC[C@@]3(C)[C@]1(C)CC2` [Compound 63170], the “Concentration required to increase transcription from the NQO1 ARE by 2-fold” value in series [3] was 25.2 nM. The “Fold increase in amount of compound needed compared to RTA 402 for the same activity” value (“Fold increase in amount” for short) in series [4] was found to be 3.40 fold. In series [5], the efflux ratio stood at 10. The IC50 in series [6] (setting [11]) came to 1100 nM; in series [6] (setting [12]), 1100 nM; in [7] (setting [13]), 1000 nM; in [7] (setting [14]) it was 1100 nM.

With `CCC(=O)N[C@]12CCC(C)(C)C[C@H]1[C@H]1C(=O)C=C3[C@@]4(C)C=C(C#N)C(=O)C(C)(C)[C@@H]4CC[C@@]3(C)[C@]1(C)CC2` [Compound 63189], in series [3], the “Concentration required to increase transcription from the NQO1 ARE by 2-fold” value turned out to be 14.9 nM. In addition, the “Fold increase in amount” value in [4] is 3.47 fold. Also, in series [5], the efflux ratio amounted to 57.1. The IC50 in series [6] (setting [11]) is 1100 nM; in series [6] (setting [12]), 1000 nM; in [7] (setting [13]), 1100 nM; in series [7] (setting [14]) it was 1200 nM.

On to `CCNC(=O)[C@]12CCC(C)(C)C[C@H]1[C@H]1C(=O)C=C3[C@@]4(C)C=C(C#N)C(=O)C(C)(C)[C@@H]4CC[C@@]3(C)[C@]1(C)CC2` [RTA 405, reference compound], for which the concentration at 6 h came to 93 nM in series [8] (brain, read-out: Drug content, Brain); 2360 nM in [8] (kidney, read-out: Drug content, Kidney); 1140 nM in series [8] (liver, read-out: Drug content, Liver); 1630 nM in series [8] (lung, read-out: Drug content, Lung); 130 nM in series [8] (plasma, read-out: Drug content, Plasma); 1160 nM in series [8] (whole blood, read-out: Drug content, Whole Blood). Further, the “NOx Levels (% vs LPS Controls)” value in series [9] (13 mg/kg oral gavage) was 44%; in [9] (25 mg/kg oral gavage), 26%; in series [9] (50 mg/kg oral gavage), 18%. Moreover, the “NQO1 activity induction, Kidney” value in [10] is given as 8.25. The “NQO1 activity induction, Liver” value in series [10] amounted to 1.93. Moreover, in series [10], the “NQO1 activity induction, Lung” value came out at 1.48.

For `CC1(C)CC[C@]2(NC(=O)C(F)(F)F)CC[C@]3(C)[C@H](C(=O)C=C4[C@@]5(C)C=C(C#N)C(=O)C(C)(C)[C@@H]5CC[C@]43C)[C@@H]2C1` [Compound 63171], the “Fold increase in amount” value in [4] was 2.65 fold. For the same molecule, in series [5], the efflux ratio is 11.2. Moreover, the IC50 in series [6] (setting [11]) was 1700 nM; in [6] (setting [12]) it was 1800 nM; in series [7] (setting [13]), 2000 nM; in series [7] (setting [14]), 2100 nM.

For `CC1(C)CC[C@]2(CO)CC[C@]3(C)[C@H](C(=O)C=C4[C@@]5(C)C=C(C#N)C(=O)C(C)(C)[C@@H]5CC[C@]43C)[C@@H]2C1` [Compound 63355], the “NQO1-ARE (fold at 62.5 nM in HuH7)” value in series [3] (62.5 nM) amounted to 6.5 ± 0.9 fold.

As to `CC1(C)CC[C@]2(NC(=O)CC(F)(F)F)CC[C@]3(C)[C@H](C(=O)C=C4[C@@]5(C)C=C(C#N)C(=O)C(C)(C)[C@@H]5CC[C@]43C)[C@@H]2C1` [Compound 63179], the “Concentration required to increase transcription from the NQO1 ARE by 2-fold” value in [3] stood at 29.1 nM. Also, the “Fold increase in amount” value in [4] was determined as 6.05 fold. In addition, the efflux ratio in series [5] came out at 56.5. In addition, the IC50 stood at 200 nM in series [6] (setting [11]), 600 nM in series [6] (setting [12]), 1400 nM in series [7] (setting [13]) and 1500 nM in series [7] (setting [14]).

For the origin of these results see patent publication US9701709B2 (REATA PHARMACEUTICALS, INC., priority 2012, dated 2017).
